Where a SMILES comes first, the peptide text is derived from it.
Key:
[1] = biological target: Mu-type opioid receptor (Homo sapiens, UniProt P35372); assay: biochemical; assay type: functional
[2] = biological target: 5-hydroxytryptamine receptor 2A (Homo sapiens, UniProt P28223); assay type: functional, cell-based
[3] = biological target: Beta-2 adrenergic receptor (Homo sapiens, UniProt P07550); assay type: functional, cell-based
[4] = biological target: Cannabinoid receptor 1 (Homo sapiens, UniProt P21554)
[5] = biological target: Gamma-aminobutyric acid receptor subunit alpha-1/alpha-2/beta-2/gamma-2 (Homo sapiens, UniProt P14867+P18507+P47869+P47870); assay type: functional, cell-based
[6] = biological target: T1, 5-hydroxytryptamine receptor 1A (Homo sapiens, UniProt P08908)
T1 sequence (P08908 whole entry): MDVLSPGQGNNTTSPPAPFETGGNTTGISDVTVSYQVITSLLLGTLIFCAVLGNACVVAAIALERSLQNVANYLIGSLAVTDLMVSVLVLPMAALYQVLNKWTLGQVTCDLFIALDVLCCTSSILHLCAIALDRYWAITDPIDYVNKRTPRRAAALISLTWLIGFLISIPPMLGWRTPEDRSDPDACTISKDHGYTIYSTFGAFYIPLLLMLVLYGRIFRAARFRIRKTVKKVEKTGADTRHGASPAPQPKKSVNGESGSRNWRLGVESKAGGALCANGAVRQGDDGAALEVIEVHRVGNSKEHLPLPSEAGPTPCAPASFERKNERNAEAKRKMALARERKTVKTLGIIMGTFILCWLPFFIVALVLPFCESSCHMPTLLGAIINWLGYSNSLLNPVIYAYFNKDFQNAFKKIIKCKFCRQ
Also: assay procedure not described here.

Beta-2 adrenergic receptor, sequence (P07550 whole entry): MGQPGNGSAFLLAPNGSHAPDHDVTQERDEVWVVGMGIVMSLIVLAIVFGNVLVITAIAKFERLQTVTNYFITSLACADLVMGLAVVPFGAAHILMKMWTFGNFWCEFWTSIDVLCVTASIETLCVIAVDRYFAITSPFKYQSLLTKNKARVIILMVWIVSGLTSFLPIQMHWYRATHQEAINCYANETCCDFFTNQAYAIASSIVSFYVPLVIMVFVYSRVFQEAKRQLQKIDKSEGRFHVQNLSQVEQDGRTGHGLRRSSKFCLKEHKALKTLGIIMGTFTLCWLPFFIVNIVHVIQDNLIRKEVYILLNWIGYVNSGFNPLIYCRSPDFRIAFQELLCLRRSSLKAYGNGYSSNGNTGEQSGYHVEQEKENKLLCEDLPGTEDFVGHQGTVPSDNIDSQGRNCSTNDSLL
Gamma-aminobutyric acid receptor subunit alpha-1/alpha-2/beta-2/gamma-2, sequence (P14867 whole entry): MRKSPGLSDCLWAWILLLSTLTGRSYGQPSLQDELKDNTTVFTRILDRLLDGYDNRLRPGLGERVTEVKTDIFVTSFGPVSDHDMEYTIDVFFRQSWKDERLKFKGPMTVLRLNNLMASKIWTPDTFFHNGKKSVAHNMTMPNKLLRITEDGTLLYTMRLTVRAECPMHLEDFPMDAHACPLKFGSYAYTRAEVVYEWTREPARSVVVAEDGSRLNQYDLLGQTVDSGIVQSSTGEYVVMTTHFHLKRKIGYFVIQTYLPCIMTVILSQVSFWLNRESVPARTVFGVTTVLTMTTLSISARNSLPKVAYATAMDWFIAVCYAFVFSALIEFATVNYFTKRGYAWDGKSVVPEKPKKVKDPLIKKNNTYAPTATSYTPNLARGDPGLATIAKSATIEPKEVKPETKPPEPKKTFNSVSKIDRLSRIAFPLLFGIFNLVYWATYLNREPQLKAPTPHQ
Gamma-aminobutyric acid receptor subunit alpha-1/alpha-2/beta-2/gamma-2, sequence (P47870 whole entry): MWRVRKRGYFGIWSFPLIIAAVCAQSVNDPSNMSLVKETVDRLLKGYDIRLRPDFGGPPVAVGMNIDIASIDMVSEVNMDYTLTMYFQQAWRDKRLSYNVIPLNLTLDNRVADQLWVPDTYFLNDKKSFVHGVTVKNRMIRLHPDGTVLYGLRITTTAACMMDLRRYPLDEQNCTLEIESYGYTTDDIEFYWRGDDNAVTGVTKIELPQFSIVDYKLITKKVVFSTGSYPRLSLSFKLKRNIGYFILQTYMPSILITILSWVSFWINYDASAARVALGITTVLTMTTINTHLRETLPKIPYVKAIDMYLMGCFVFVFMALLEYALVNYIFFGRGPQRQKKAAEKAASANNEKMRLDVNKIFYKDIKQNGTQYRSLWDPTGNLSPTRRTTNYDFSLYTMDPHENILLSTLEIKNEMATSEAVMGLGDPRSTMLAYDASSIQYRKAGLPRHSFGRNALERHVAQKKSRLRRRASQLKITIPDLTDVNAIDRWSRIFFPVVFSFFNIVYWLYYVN
Gamma-aminobutyric acid receptor subunit alpha-1/alpha-2/beta-2/gamma-2, sequence (P18507 whole entry): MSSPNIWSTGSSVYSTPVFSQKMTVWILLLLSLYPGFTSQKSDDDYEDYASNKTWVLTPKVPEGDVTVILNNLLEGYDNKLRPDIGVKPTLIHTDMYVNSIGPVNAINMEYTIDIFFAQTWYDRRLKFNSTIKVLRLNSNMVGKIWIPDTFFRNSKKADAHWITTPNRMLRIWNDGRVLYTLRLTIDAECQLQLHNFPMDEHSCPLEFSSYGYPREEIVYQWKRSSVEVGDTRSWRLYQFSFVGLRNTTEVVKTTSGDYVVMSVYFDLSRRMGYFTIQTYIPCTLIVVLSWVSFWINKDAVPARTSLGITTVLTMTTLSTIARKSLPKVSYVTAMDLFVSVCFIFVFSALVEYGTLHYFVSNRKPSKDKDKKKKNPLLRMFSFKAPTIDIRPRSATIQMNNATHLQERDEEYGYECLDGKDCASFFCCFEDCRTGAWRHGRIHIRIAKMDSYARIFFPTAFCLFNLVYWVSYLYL
Gamma-aminobutyric acid receptor subunit alpha-1/alpha-2/beta-2/gamma-2, sequence (P47869 whole entry): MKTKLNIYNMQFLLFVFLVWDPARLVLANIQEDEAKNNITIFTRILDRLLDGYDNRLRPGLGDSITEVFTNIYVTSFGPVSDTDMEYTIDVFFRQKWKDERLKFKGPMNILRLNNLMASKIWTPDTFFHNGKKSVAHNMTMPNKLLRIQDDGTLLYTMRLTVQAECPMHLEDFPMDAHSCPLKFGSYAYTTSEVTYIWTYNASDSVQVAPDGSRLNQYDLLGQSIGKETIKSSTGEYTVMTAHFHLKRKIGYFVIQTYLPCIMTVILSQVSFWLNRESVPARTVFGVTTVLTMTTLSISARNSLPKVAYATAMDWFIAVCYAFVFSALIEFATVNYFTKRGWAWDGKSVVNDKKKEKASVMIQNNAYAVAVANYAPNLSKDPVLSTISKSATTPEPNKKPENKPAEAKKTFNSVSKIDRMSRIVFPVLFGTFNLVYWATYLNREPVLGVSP
Cannabinoid receptor 1, sequence (P21554 whole entry): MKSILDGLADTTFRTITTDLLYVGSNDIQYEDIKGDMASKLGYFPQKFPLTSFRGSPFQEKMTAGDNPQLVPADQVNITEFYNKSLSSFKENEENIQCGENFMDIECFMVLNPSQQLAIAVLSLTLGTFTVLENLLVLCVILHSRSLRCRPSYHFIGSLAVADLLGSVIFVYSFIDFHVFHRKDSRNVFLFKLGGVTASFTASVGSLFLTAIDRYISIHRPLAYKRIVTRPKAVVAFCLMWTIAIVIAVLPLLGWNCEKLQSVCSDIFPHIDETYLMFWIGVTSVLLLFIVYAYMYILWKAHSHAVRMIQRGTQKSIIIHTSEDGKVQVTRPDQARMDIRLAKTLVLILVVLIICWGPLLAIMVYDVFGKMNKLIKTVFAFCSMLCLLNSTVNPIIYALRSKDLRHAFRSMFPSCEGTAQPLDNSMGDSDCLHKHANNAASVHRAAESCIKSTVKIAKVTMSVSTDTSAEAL
5-hydroxytryptamine receptor 2A, sequence (P28223 whole entry): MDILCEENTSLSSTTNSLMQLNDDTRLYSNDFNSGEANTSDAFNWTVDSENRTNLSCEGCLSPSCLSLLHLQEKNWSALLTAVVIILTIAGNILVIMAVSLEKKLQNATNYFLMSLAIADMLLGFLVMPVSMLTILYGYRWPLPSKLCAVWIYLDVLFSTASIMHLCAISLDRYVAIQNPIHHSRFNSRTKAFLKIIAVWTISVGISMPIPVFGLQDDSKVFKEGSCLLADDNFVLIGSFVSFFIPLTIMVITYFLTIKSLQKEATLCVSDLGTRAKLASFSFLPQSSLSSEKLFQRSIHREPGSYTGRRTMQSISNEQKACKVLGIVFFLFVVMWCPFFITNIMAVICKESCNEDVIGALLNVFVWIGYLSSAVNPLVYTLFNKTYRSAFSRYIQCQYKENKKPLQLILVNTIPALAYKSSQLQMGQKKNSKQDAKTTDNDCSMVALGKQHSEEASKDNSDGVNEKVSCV
Mu-type opioid receptor, sequence (P35372 whole entry): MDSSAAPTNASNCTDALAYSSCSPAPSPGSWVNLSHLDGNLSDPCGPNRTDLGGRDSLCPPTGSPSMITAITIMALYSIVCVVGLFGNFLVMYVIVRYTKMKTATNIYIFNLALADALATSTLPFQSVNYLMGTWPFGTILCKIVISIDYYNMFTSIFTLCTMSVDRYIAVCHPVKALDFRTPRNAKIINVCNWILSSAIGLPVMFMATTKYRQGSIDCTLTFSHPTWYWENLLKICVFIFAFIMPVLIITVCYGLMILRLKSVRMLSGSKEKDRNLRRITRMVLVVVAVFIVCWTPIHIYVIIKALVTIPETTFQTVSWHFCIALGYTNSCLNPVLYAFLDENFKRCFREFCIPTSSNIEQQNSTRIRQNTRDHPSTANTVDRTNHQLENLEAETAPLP

| Molecule | AC50 [1] [µM] | AC50 [2] [µM] | AC50 [3] [µM] | AC50 [4] [µM] | AC50 [5] [µM] | AC50 [6] [µM] |
| --- | --- | --- | --- | --- | --- | --- |
| CCN(CC)CCCN(c1ccccc1)C1Cc2ccccc2C1 [APRINDINE] | > 30 | 2.89 | > 30 | > 10 | > 30 | – |
| CN1CCCN=C1/C=C/c1cccc(O)c1 [OXANTEL] | > 30 | > 30 | > 30 | – | – | – |
| CC(=O)OCC(=O)[C@@]1(O)CC[C@H]2[C@@H]3CCC4=CC(=O)CC[C@]4(C)[C@@]3(F)[C@@H](O)C[C@@]21C [FLUDROCORTISONE ACETATE] | > 30 | – | > 30 | – | – | – |
| CCCCCCOC(=O)NC(=N)c1ccc(NCc2nc3cc(C(=O)N(CCC(=O)OCC)c4ccccn4)ccc3n2C)cc1 [DABIGATRAN ETEXILATE] | – | > 30 | > 30 | – | > 30 | – |
| O=C(O)c1nn(Cc2ccc(Cl)cc2Cl)c2ccccc12 [LONIDAMINE] | > 30 | > 30 | > 10 | – | – | – |
| CS(=O)(=O)NC(=O)CCC/C=C\C[C@H]1C(=O)C[C@@H](O)[C@@H]1/C=C/[C@@H](O)COc1ccccc1 [SULPROSTONE] | > 30 | > 30 | > 30 | – | > 30 | – |
| CCC1(CC)C(=O)NC(=O)N(C)C1=O [METHARBITAL] | – | > 10 | – | > 10 | – | – |
| COC(=O)[C@H]1[C@H]2C[C@@H]3c4[nH]c5ccccc5c4CCN3C[C@H]2C[C@@H](OC(=O)c2cc(OC)c(OC)c(OC)c2)[C@@H]1OC [DESERPIDINE] | – | > 10 | – | > 10 | – | – |
| O=C(O)c1ccc2nc(-c3cc(Cl)cc(Cl)c3)oc2c1 | > 30 | > 30 | – | 22 | – | – |
| CC(=O)N1CCN(c2ccc(OCC3COC(Cn4ccnc4)(c4ccc(Cl)cc4Cl)O3)cc2)CC1 (stereo unspecified) [KETOCONAZOLE] | – | – | – | > 10 | – | – |
| CN1CCC(=C2c3ccccc3CC(=O)c3sccc32)CC1 [KETOTIFEN] | > 30 | – | > 30 | > 10 | – | – |
| CC(=O)[C@@]1(O)CC[C@H]2[C@@H]3C[C@H](C)C4=CC(=O)C=C[C@]4(C)[C@@]3(F)[C@@H](O)C[C@@]21C [FLUOROMETHOLONE] | – | – | – | > 10 | – | – |
| CCN(CC)Cc1nccn1-c1ccc([N+](=O)[O-])cc1C(=O)c1ccccc1Cl [NIZOFENONE] | > 30 | > 30 | – | – | – | – |
| CNCCc1ccccn1 [BETAHISTINE] | > 30 | – | – | – | – | – |
| CC(=O)OCC1=C(C(=O)O)N2C(=O)[C@@H](NC(=O)Cc3cccs3)[C@H]2SC1 [CEPHALOTHIN] | > 30 | > 30 | > 30 | – | > 30 | – |
| CC1CC(OC(=O)C(O)c2ccccc2)CC(C)(C)C1 (stereo unspecified) [CYCLANDELATE] | – | – | – | > 10 | – | – |
| OCC(O)COc1ccc(Cl)cc1 (stereo unspecified) | – | > 10 | – | > 10 | – | – |
| CCCCCCCC(=O)CC[C@@H]1[C@@H](C/C=C\CCCC(=O)O)[C@@H](O)C[C@H]1O [UNOPROSTONE] | > 30 | > 30 | > 30 | – | > 30 | – |
| CN(Cc1ccc(C(C)(C)C)cc1)Cc1cccc2ccccc12 [BUTENAFINE] | – | – | – | > 10 | – | – |
| COc1nc(C)nc(Cl)c1N=C1NCCN1 [MOXONIDINE] | > 30 | – | > 30 | – | – | – |
| CC(C)(C)NCC(O)COc1cccc2c1CC(O)C(O)C2 (stereo unspecified) [NADOLOL] | – | – | – | > 10 | – | – |

| Molecule | AC50 [1] [µM] | AC50 [2] [µM] | AC50 [3] [µM] | AC50 [4] [µM] | AC50 [5] [µM] | AC50 [6] [µM] |
| --- | --- | --- | --- | --- | --- | --- |
| CC(=O)Oc1cccc2c1C(=O)c1c(OC(C)=O)cc(C(=O)O)cc1C2=O [DIACEREIN] | > 30 | 18 | – | – | – | – |
| CN(C)CCOCC(=O)NC12CC3CC(CC(C3)C1)C2 [TROMANTADINE] | > 30 | > 30 | – | – | – | – |
| CO/N=C(\C(=O)N[C@@H]1C(=O)N2C(C(=O)[O-])=C(C[n+]3ccc(N)n3CCO)CS[C@H]12)c1csc(N)n1 [CEFOSELIS] | > 30 | > 30 | – | – | – | – |
| COc1cc(N)cn[n+]1-c1ccccc1 [AMEZINIUM METILSULFATE] | > 30 | > 30 | – | – | – | – |
| OCCN(CCO)c1nc(N2CCCCC2)c2nc(N(CCO)CCO)nc(N3CCCCC3)c2n1 [DIPYRIDAMOLE] | > 30 | – | – | > 30 | – | – |
| CCc1ccc(C(=O)C(C)CN2CCCCC2)cc1 (stereo unspecified) [EPERISONE] | > 30 | – | – | > 30 | – | – |
| CCC1(C)CC(=O)NC1=O (stereo unspecified) [ETHOSUXIMIDE] | > 30 | – | – | > 10 | – | – |
| TEPRENONE | – | – | – | – | – | > 10 |
| Cc1ccc(S(=O)(=O)NC(=O)N[C@H]2[C@H]3CC[C@@](C)([C@H]2O)C3(C)C)cc1 [GLIBORNURIDE] | > 30 | > 30 | > 30 | – | – | – |
| CCCO[C@H]1[C@@H]([C@@H](COCc2ccc(Cl)cc2)OCc2ccc(Cl)cc2)OC(OCC)[C@@H]1O (stereo partly specified) [CLOBENOSIDE] | > 30 | > 30 | – | – | – | – |
| CC1=C(/C=C/C(C)=C/C=C/C(C)=C/C(=O)Oc2c(C)c(C)c3c(c2C)CCC(C)(CCCC(C)CCCC(C)CCCC(C)C)O3)C(C)(C)CCC1 (stereo unspecified) [TRETINOIN TOCOFERIL] | > 30 | > 30 | – | – | – | – |
| C[C@@H](Cc1ccccc1)N(C)Cc1ccccc1 [BENZPHETAMINE] | – | 22 | – | > 10 | – | – |
| OCC(CO)N[C@H]1C[C@](O)(CO)[C@@H](O)[C@H](O)[C@H]1O [VOGLIBOSE] | > 30 | > 30 | – | > 30 | – | – |
| SITOSTEROLS | > 30 | > 30 | – | – | – | – |
| COc1ccc(-n2nc(C(N)=O)c3c2C(=O)N(c2ccc(N4CCCCC4=O)cc2)CC3)cc1 [APIXABAN] | – | – | > 30 | – | > 30 | – |
| CCCCOC(=O)c1ccc(N)cc1 [BUTAMBEN] | > 30 | – | – | – | – | – |
| CCOC(=O)O[C@]1(C(=O)COC(=O)CC)CC[C@H]2[C@@H]3CCC4=CC(=O)C=C[C@]4(C)[C@H]3[C@@H](O)C[C@@]21C [PREDNICARBATE] | > 30 | > 10 | – | > 10 | – | – |
| CCN1C(=O)NC(c2ccccc2)C1=O (stereo unspecified) [ETHOTOIN] | > 30 | > 30 | > 30 | – | > 30 | – |
| Cc1cccc(Nc2ccncc2S(=O)(=O)NC(=O)NC(C)C)c1 [TORSEMIDE] | > 30 | – | – | > 10 | – | – |
| CN(C)CCOC(=O)C(c1ccccc1)C1(O)CCCC1 (stereo unspecified) [CYCLOPENTOLATE] | > 30 | > 10 | – | > 10 | – | – |
| O=C(C[S+]([O-])Cc1ccco1)NC/C=C\COc1cc(CN2CCCCC2)ccn1 (stereo unspecified) [LAFUTIDINE] | – | > 30 | – | > 10 | – | – |

| Molecule | AC50 [1] [µM] | AC50 [2] [µM] | AC50 [3] [µM] | AC50 [4] [µM] | AC50 [5] [µM] | AC50 [6] [µM] |
| --- | --- | --- | --- | --- | --- | --- |
| CCN(C(C)=O)c1cccc(-c2ccnc3c(C#N)cnn23)c1 [ZALEPLON] | – | – | – | – | – | > 10 |
| CC1=C(C(=O)O)N2C(=O)[C@@H](NC(=O)[C@H](N)C3=CCC=CC3)[C@H]2SC1 [CEPHRADINE] | > 30 | > 30 | > 30 | – | > 30 | – |
| C[C@H](N)C(=O)N[C@@H](CCC(N)=O)C(=O)O [ALANYL GLUTAMINE] (H-Ala-Gln-OH) | > 30 | > 30 | – | – | – | – |
| CCC(NC(C)C)C(O)c1ccc(O)c(O)c1 (stereo unspecified) [ISOETHARINE] | > 30 | > 30 | – | > 30 | – | – |
| CCCCC[C@H](O)CC[C@@H]1[C@H]2Cc3cccc(OCC(=O)O)c3C[C@H]2C[C@H]1O [TREPROSTINIL] | > 30 | > 30 | > 30 | – | – | – |
| CO/N=C(\C(=O)N[C@@H]1C(=O)N2C(C(=O)O)=C(CSc3nc(C)c(CC(=O)O)s3)CS[C@H]12)c1csc(N)n1 [CEFODIZIME] | > 30 | > 30 | – | – | – | – |
| COc1ccc(C(Cl)=C(c2ccc(OC)cc2)c2ccc(OC)cc2)cc1 [CHLOROTRIANISENE] | > 30 | > 30 | > 30 | > 10 | > 30 | – |
| COC(=O)c1ccc2c(c1)NC(=O)/C2=C(\Nc1ccc(N(C)C(=O)CN2CCN(C)CC2)cc1)c1ccccc1 [NINTEDANIB] | > 30 | > 30 | > 30 | – | > 30 | – |
| O=C(O)CCCC[C@@H]1SC[C@@H]2NC(=O)N[C@@H]21 [BIOTIN] | – | – | – | > 10 | – | – |
| Nc1ccc(S(=O)(=O)Nc2ncccn2)cc1 [SULFADIAZINE] | – | – | – | > 10 | – | – |
| NS(=O)(=O)c1ccc(N2CCCCS2(=O)=O)cc1 | > 30 | > 30 | > 30 | – | > 30 | – |
| CCC(=O)O[C@H](CC(=O)O)C[N+](C)(C)C [LEVOCARNITINE PROPIONATE] | > 30 | > 30 | > 30 | – | > 30 | – |
| CC(C(=O)O)c1ccc(C(=O)c2ccccc2)s1 (stereo unspecified) [TIAPROFENIC ACID] | – | > 30 | > 30 | > 10 | – | – |
| CCC(=O)[C@@]1(C)[C@H](C)C[C@H]2[C@@H]3CCC4=CC(=O)C=C[C@]4(C)[C@H]3[C@@H](O)C[C@@]21C [RIMEXOLONE] | > 30 | > 10 | – | 6.91 | – | – |
| C=C(c1ccccc1OCc1cccc(Cl)c1)n1ccnc1 [CROCONAZOLE] | – | – | – | – | – | > 10 |
| CC(=O)OCC1=C(C(=O)O)N2C(=O)[C@@H](NC(=O)CSc3ccncc3)[C@H]2SC1 [CEPHAPIRIN] | > 30 | > 10 | – | > 10 | – | – |
| Nc1nc(Cl)nc2c1ncn2[C@@H]1O[C@H](CO)[C@@H](O)[C@@H]1F [CLOFARABINE] | > 30 | > 30 | – | > 30 | – | – |
| CC(C)CN(C[C@@H](O)[C@H](Cc1ccccc1)NC(=O)O[C@H]1CCOC1)S(=O)(=O)c1ccc(N)cc1 | – | – | – | 11.4 | – | – |
| CCCCOC(=O)C(=O)Nc1cccc(-c2nnn[nH]2)c1 [TAZANOLAST] | > 30 | > 30 | – | – | – | – |
